Consider 14 molecules from patent US20110245283A1, “Methods for predicting the response to statins” (priority 2009, published 2011).

Each structure is given as a SMILES string. Like-named read-outs stand apart in the source and are kept apart here.

In one series the test system is LDL. The experiment in a line: Logistic regression models of attaining LDL goal: odds ratios for concurrent or prior drug doses. In kind it is in vivo, patients. As to conditions: for OR: per dose increment. Here is the method: G. Covariates for the multivariate model—The following list includes the predictors one or more of which may be tested in the multivariate models. • 1. AGE: (expressed in units of 10 years) at time that the new statin prescription was released • 2. GENDER, E. G., MALE: 1=yes, 0=no • 3. BMI (kg/M^2): last value before release date • 4. HBA1C (hemoglobin Alc): last value before release date • 5. PLDL: preceding LDL level expressed in e.g. 10 mg/dl units • 6. Statins • a. PLOVA: prior daily dose of lovastatin expressed in e.g. 10 mg units • b. […] For additional drugs: • a. AMIODOSE: amiodarone dose in mg/day • b. CARBDOSE: carbemazepine dose in mg/day • c. PIOGDOSE: pioglitazone dose expressed as number of 15 mg doses per day • d. […] METFDOSE: metformin dose expressed as number of 1000 mg doses per day • f. PHENDOSE: phenyloin dose in mg/day • g. RISPDOSE: risperidone dose in mg/day • h. ROSIDOSE: rosiglitazone dose in mg/day • i.
Body mass index (BMI) was chosen as a covariate of statin response because obese patients tend to consume a diet high in cholesterol. It was hypothesized that they would respond less well to statins because their hypercholesterolemia was more likely to be mediated by dietary indiscretion than excessive LDL synthesis. […] Metformin and the thiazolidinediones were chosen because they reduce LDL levels in diabetic patients through mechanisms that may or may not be affected by concurrent statin treatment. The remaining non-statin drugs were chosen because they are commonly used drugs that potentiate the effect of statins. They were selected by reviewing the official on-line VA pharmaceutical reference (Micromedex®) for major interactions mediated by impaired statin metabolism. […] The daily dose of the non-statin drug was calculated by the method described in Section B.
H. Assembling the predictor file—The patient identifier was used to link the new statin prescription type and dose, the preceding LDL above goal, and the type and dose of the previous statin (if any) with the patient's most recent HbA1c, most recent BMI, and the daily doses of 9 drugs with major statin interactions that were active at the time the new prescription was released.
The dependent variable was attainment of goal (LDL <100 mg/dl). […] Step selections were based upon the maximal likelihood method with α<0.15 to enter and ≧0.15 to remove.

The conditions of series [1]: cited from earlier work.
Where [2] appears, read: odds of goal LDL <100 mg/dl, Lovastatin 20 mg [A] model (includes HbA1c; n = 595).
Where [3] appears, read: odds of goal, Lovastatin 20 mg [B] model (excludes HbA1c; n = 733).
The mark [4] stands for this setting: odds of goal, Lovastatin 40 mg model (n = 764).
Where [5] appears, read: odds of goal, Simvastatin 10 mg [A] model (no previous treatment; n = 172).
Setting [6] is: odds of goal, Simvastatin 10 mg [C] model (excludes BMI; n = 219).
[7] abbreviates: odds of goal, Simvastatin 40 mg model (n = 698).

For `COc1ccc([C@@H]2Sc3ccccc3N(CCN(C)C)C(=O)[C@@H]2OC(C)=O)cc1` [Diltiazem, diltiazem], the “Increase of odds of reaching goal” value in the series with LDL (for every 120 mg per day diltiazem, lovastatin 20 mg model) is listed as 70%. For the same molecule, the OR in the series on LDL (setting [2]) is 1.44; with LDL (setting [3]) it was 1.69; in the series with LDL (setting [4]), 1.35; in the series on LDL (setting [5]), 1.78; with LDL (setting [6]), 1.76; in the series on LDL (setting [7]), 1.70.
As to `CCc1ccc(CCOc2ccc(CC3SC(=O)NC3=O)cc2)nc1` (centres unmarked) [Pioglitazone, pioglitazone], the OR with LDL (setting [3]) is 2.06.
As to `CN(C)C(=N)N=C(N)N` [Metformin, metformin], in the series with LDL (for every 1,000 mg daily, 2 models), the “Odds ratio for concurrent treatment” value was found to be 1.3. For the same molecule, the OR is 1.30 in the series with LDL (setting [2]); 1.26 with LDL (setting [3]); 1.22 with LDL (setting [4]); 1.84 in the series with LDL (setting [5]); 1.98 with LDL (setting [6]); 1.31 in the series with LDL (setting [7]). Besides, the “Increase of odds of reaching goal” value in the series on LDL (patient taking metformin, simvastatin 40 mg model) is given as 30%.
Consider `CCOC(=O)C(C)(C)Oc1ccc(Cl)cc1` [Clofibrate], for which the “Increased risk of toxicity or reduced statin effectiveness” value in series [1] (with Atorva), in series [1] (with Fluva), in series [1] (with Lova), in series [1] (with Prava) and in series [1] (with Simva) was “(+)” each time. For the same molecule, the “Severity of the interaction” value in series [1] (with Atorva), in series [1] (with Fluva), in series [1] (with Lova), in series [1] (with Prava) and in series [1] (with Simva) was 3 each time.
For the molecule `O=C1NC(=O)C(c2ccccc2)(c2ccccc2)N1` [Phenytoin], the “Severity of the interaction” value in series [1] (with Atorva), in series [1] (with Fluva) and in series [1] (with Simva) was 2 throughout. The “Increased risk of toxicity or reduced statin effectiveness” value in series [1] (with Fluva) is listed as “(+)”.
For `Cc1ccc(C)c(OCCCC(C)(C)C(=O)O)c1` [Gemfibrozil], the “Increased risk of toxicity or reduced statin effectiveness” value in series [1] (with Atorva), in series [1] (with Fluva), in series [1] (with Lova), in series [1] (with Prava), in series [1] (with Rosuva) and in series [1] (with Simva) was “(+)” each time. For the same molecule, the “Severity of the interaction” value in series [1] (with Atorva), in series [1] (with Fluva), in series [1] (with Lova), in series [1] (with Prava), in series [1] (with Rosuva) and in series [1] (with Simva) was 3 each time.
`Cc1nc2n(c(=O)c1CCN1CCC(c3noc4cc(F)ccc34)CC1)CCCC2` [Risperidone]: in series [1] (with Simva), the “Increased risk of toxicity or reduced statin effectiveness” value is “(+)” and the “Severity of the interaction” value was 3.
For `CC(C)c1nc(CN(C)C(=O)N[C@H](C(=O)N[C@@H](Cc2ccccc2)C[C@H](O)[C@H](Cc2ccccc2)NC(=O)OCc2cncs2)C(C)C)cs1` [Rotinavir], the “Increased risk of toxicity or reduced statin effectiveness” value in series [1] (with Atorva), in series [1] (with Lova) and in series [1] (with Simva) was “(+)” each time. Besides, the entries for the “Severity of the interaction” value in series [1] (with Atorva), in series [1] (with Lova) and in series [1] (with Simva) were 2, 3 and 3, respectively.
`CCCCc1oc2ccccc2c1C(=O)c1cc(I)c(OCCN(CC)CC)c(I)c1` [Amiodarone]: the “Severity of the interaction” value in series [1] (with Lova) and in series [1] (with Simva) was 3 each time.
As for `CO[C@H]1/C=C/O[C@@]2(C)Oc3c(C)c(O)c4c(O)c(c(/C=N/N5CCN(C)CC5)c(O)c4c3C2=O)NC(=O)/C(C)=C\C=C\[C@H](C)[C@H](O)[C@@H](C)[C@@H](O)[C@@H](C)[C@H](OC(C)=O)[C@@H]1C` [Rifampin], the “Severity of the interaction” value is 1 in series [1] (with Fluva) and 2 in series [1] (with Simva).
Take `Cc1c(O)cccc1C(=O)N[C@@H](CSc1ccccc1)[C@H](O)CN1C[C@H]2CCCC[C@H]2C[C@H]1C(=O)NC(C)(C)C` [Nelfinavir]: the “Increased risk of toxicity or reduced statin effectiveness” value in series [1] (with Atorva), in series [1] (with Lova) and in series [1] (with Simva) was “(+)” in each case. Further, the “Severity of the interaction” value in series [1] (with Atorva), in series [1] (with Lova) and in series [1] (with Simva) was 3 throughout.
On to `CC[C@H]1OC(=O)[C@H](C)C(=O)[C@H](C)[C@@H](O[C@@H]2O[C@H](C)C[C@H](N(C)C)[C@H]2O)[C@](C)(OC)C[C@@H](C)C(=O)[C@H](C)[C@H]2N(CCCCn3cnc(-c4cccnc4)c3)C(=O)O[C@]12C` [Telithromycin], for which the “Increased risk of toxicity or reduced statin effectiveness” value in series [1] (with Atorva), in series [1] (with Lova) and in series [1] (with Simva) was “(+)” each time. Further, the “Severity of the interaction” value in series [1] (with Atorva), in series [1] (with Lova) and in series [1] (with Simva) was 3 in each case.
Consider `CC(C)(C)NC(=O)[C@@H]1C[C@@H]2CCCC[C@@H]2CN1C[C@@H](O)[C@H](Cc1ccccc1)NC(=O)[C@H](CC(N)=O)NC(=O)c1ccc2ccccc2n1` [Saquinavir], for which the “Increased risk of toxicity or reduced statin effectiveness” value in series [1] (with Atorva), in series [1] (with Lova) and in series [1] (with Simva) was “(+)” throughout.
`CC(C)CN(C[C@@H](O)[C@H](Cc1ccccc1)NC(=O)O[C@H]1CCOC1)S(=O)(=O)c1ccc(N)cc1` [Amprenavir]: the “Increased risk of toxicity or reduced statin effectiveness” value in series [1] (with Atorva), in series [1] (with Lova), in series [1] (with Prava) and in series [1] (with Simva) was “(+)” each time. The “Severity of the interaction” value in series [1] (with Atorva) is reported as 2; in series [1] (with Lova) it was 3; in series [1] (with Prava) it was 2; in series [1] (with Simva), 3.
